Test results as given in patent publication US9434724B2, “Quinuclidines for modulating alpha 7 activity” (priority 2014, dated 2016).
Read-outs that look alike come from different tables or passages of the source.

Legend:
[1] = Metabolic stability assay in human liver microsomes (HLM); type: in vitro ADME; conditions: 1 μM
Procedure, shortened: (§1)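 In Protocol 1, compound was 1 μM final with NADPH at 37 °C, sampled at 0–45 min. In Protocol 2, 1.5 μM compound with 0.75 mg/mL microsomes (pre-NADPH mix) in 0.1 M potassium phosphate, 1 mM EDTA, pH 7.4 was pre-incubated 10 min, then NADPH started the reaction. Both: LC-MS/MS % remaining versus time 0, half-life from single-phase exponential fit.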

[2] = molecular target: T1, CYP2C19 (Homo sapiens (Human), UniProt P33261); assay: Cytochrome P450 inhibition in human liver microsomes, CYP2C19
T1 sequence (P33261 whole entry): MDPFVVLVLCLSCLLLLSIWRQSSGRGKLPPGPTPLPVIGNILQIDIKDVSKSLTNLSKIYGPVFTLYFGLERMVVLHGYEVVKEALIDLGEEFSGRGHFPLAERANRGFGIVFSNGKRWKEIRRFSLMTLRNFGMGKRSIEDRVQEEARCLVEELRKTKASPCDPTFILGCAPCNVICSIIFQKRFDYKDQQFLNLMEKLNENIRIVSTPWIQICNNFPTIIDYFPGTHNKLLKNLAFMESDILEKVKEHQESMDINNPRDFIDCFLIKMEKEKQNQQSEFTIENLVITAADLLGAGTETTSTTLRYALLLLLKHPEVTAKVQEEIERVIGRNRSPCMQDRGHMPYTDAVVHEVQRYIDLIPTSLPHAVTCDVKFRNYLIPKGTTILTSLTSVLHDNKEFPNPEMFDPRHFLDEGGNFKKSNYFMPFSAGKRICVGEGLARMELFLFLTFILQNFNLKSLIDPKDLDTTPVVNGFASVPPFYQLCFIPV

[3] = Metabolic stability assay in rat liver microsomes (RLM); type: in vitro ADME; conditions: 1 μM
Procedure, shortened: as §1

[4] = molecular target: CYP2D6 (Homo sapiens (Human), UniProt P10635); assay: Cytochrome P450 inhibition in human liver microsomes, CYP2D6
CYP2D6, sequence (P10635 whole entry): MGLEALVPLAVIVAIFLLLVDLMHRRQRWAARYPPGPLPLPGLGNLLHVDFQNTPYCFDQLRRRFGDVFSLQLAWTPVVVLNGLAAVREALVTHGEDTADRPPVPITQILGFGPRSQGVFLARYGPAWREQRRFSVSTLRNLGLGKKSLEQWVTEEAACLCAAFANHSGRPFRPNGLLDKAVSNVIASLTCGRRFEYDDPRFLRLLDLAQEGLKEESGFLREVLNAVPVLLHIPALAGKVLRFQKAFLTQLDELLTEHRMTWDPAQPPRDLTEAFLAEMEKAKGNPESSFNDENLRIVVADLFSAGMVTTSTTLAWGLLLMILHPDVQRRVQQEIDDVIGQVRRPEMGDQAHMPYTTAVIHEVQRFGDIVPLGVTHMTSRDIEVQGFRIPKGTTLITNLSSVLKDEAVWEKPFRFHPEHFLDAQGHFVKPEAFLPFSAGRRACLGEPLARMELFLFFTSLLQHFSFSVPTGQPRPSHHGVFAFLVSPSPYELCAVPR

[5] = molecular target: CYP1A2 (Homo sapiens (Human), UniProt P05177); assay: Cytochrome P450 inhibition in human liver microsomes, CYP1A2
CYP1A2, sequence (P05177 whole entry): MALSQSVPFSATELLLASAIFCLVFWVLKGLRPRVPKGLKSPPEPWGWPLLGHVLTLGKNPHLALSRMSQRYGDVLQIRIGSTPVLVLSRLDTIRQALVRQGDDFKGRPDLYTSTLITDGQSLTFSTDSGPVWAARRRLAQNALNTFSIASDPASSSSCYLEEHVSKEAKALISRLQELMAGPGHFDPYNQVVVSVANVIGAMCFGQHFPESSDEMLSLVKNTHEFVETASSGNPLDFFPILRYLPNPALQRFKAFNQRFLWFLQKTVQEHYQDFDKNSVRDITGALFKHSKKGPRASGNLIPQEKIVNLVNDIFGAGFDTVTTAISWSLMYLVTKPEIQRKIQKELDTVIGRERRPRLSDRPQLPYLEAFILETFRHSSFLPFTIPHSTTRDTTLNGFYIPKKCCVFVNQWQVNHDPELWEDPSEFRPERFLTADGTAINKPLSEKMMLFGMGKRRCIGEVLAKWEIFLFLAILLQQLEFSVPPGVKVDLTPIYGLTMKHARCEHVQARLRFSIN

[6] = molecular target: rat brain nicotinic receptor (α7 NAChR) (Rattus norvegicus (Rat), UniProt Q05941); type: binding
rat brain nicotinic receptor (α7 NAChR), sequence (Q05941 23-502 limits assumed): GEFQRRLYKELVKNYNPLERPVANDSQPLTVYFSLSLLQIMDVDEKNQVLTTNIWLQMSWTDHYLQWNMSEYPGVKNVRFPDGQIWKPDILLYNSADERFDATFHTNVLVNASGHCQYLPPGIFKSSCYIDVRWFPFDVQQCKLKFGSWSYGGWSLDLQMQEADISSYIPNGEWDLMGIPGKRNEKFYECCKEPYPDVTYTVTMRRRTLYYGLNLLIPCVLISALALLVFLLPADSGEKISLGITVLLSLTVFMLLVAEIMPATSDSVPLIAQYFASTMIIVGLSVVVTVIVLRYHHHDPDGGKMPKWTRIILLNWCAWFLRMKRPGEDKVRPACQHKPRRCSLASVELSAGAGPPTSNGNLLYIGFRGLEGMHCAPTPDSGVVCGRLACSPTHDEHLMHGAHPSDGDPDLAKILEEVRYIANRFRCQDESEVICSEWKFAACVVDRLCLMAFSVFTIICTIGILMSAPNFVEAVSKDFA

[7] = molecular target: CYP3A4 (Homo sapiens (Human), UniProt P08684); assay: Cytochrome P450 inhibition in human liver microsomes, CYP3A4
CYP3A4, sequence (P08684 whole entry): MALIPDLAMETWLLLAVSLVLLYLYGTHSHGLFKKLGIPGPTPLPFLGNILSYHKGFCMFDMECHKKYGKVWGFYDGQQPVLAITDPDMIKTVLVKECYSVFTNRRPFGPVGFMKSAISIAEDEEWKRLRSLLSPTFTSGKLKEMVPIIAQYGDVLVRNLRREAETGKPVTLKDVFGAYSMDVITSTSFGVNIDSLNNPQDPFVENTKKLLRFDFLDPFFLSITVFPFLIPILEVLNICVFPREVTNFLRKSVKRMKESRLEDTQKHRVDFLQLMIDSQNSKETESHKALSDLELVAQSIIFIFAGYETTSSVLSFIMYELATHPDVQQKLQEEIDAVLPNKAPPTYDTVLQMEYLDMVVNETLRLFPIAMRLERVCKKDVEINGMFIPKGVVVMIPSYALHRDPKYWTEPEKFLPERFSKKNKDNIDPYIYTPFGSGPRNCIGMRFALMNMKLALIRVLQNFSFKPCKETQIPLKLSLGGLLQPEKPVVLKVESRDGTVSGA

[8] = molecular target: CYP2C9 (Homo sapiens (Human), UniProt P11712); assay: Cytochrome P450 inhibition in human liver microsomes, CYP2C9
CYP2C9, sequence (P11712 whole entry): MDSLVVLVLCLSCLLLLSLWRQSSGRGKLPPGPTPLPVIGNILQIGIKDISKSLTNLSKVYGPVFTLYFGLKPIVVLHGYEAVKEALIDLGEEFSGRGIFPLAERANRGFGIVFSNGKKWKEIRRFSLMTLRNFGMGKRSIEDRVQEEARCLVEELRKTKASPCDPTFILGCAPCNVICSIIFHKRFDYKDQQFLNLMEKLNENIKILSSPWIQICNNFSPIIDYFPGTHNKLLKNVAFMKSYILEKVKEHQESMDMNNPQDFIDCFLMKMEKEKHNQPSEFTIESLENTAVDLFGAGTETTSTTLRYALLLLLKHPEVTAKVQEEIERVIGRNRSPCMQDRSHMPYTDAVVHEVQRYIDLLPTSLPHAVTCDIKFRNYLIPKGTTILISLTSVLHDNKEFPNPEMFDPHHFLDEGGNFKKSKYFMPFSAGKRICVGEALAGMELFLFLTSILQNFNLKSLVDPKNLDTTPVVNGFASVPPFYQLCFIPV

[9] = Human plasma stability; type: in vitro ADME
Procedure, shortened: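 Compound remaining was quantified by LC-MS/MS as peak-area ratio to internal standard relative to time 0, with half-lives from single-exponential fits. Protocol 1 incubated 1 μM in heparinized human plasma (pH 7.4, 37° C) to 120 min; protocol 2 used 5 μM, pH 7.4–8.0, 37° C, n=2, to 120 min.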

[10] = molecular target: T1, CYP2C19; conditions: microsomes
[11] = Protocol No. 2, human liver microsomes
[12] = read-out: 2C19 IC50, Protocol 2
[13] = Protocol No. 2, rat liver microsomes
[14] = read-out: 3A4 IC50 (Midazolam), substrate midazolam, Protocol 2
[15] = pH 7.4, Protocol No. 1, human plasma, 1 μM, 37° C., read-out: T1/2
[16] = human, plasma, 2 h, 1 μM, pH 7.4
[17] = read-out: 3A4 IC50 (Midazolam), substrate midazolam, Protocol 1
[18] = read-out: 3A4 IC50 (Testosterone), substrate testosterone, Protocol 1

SMILES | IC50 [2, 12] | IC50 ([4]; read-out: 2D6 IC50, Protocol 2) | IC50 ([5]; read-out: 1A2 IC50, Protocol 2) | IC50 [6] | Ki [6] | IC50 ([8]; read-out: 2C9 IC50, Protocol 2) | IC50 [10] | HLM ([1]; human, microsomes, pH 7.4) | RLM ([3]; rat, microsomes, pH 7.4) | % Remaining @ 2 h [9, 16] | half-life at 1 μM ([9]; human, plasma, pH 7.4) | further results
Cl.O=C(OCC12CCN(CC1)CC2)c1c[nH]c2cc3c(cc12)OCCO3 [Compound 30, Quinuclidin-4-ylmethyl 2,3-dihydro-6H-[1,4]dioxino[2,3-f]indole-8-carboxylate hydrochloride] | > 10000 nM | > 10000 nM | > 10000 nM | 92.5 nM | 81.1 nM | > 10000 nM |  |  |  |  |  | HLM [1, 11]: <13.608 mL/min/kg; RLM [3, 13]: 55.98 mL/min/kg; IC50 [7, 14]: > 10000 nM; % Remaining @ 2 h ([9]; Protocol No. 1, human plasma, 1 μM, 37° C.): 10%; half-life at 1 μM [9, 15]: 34.7 min
O=C(OCC12CCN(CC1)CC2)c1c[nH]c2cc(Cl)ccc12 [Compound 26, quinuclidin-4-ylmethyl 6-chloro-1H-indole-3-carboxylate] |  |  | > 10000 nM | 451 nM | 398 nM |  | > 10000 nM | <13.608 mL/min/kg | 75.0501 mL/min/kg | 65% | > 120 min | 
COc1ccc2[nH]cc(C(=O)OCC34CCN(CC3)CC4)c2c1Cl [Compound 39, quinuclidin-4-ylmethyl 4-chloro-5-methoxy-1H-indole-3-carboxylate] |  |  |  | 23.9 nM | 20.6 nM |  |  |  |  |  |  | IC50 ([10]; 45 min): > 10000 nM; HLM ([1]; human, microsomes): 9.18 mL/min/kg; RLM ([3]; rat, microsomes): 262.35 mL/min/kg; IC50 ([5]; read-out: 1A2 IC50, Protocol 1): > 10000 nM; IC50 [7, 17]: > 10000 nM; IC50 [7, 18]: > 10000 nM; % Remaining @ 2 h ([9]; human, plasma, 2 h, 5 μM): 14.05%
COc1cc(F)c2c(C(=O)OCC34CCN(CC3)CC4)c[nH]c2c1.Cl [Compound 33, Quinuclidin-4-ylmethyl 4-fluoro-6-methoxy-1H-indole-3-carboxylate hydrochloride] | > 10000 nM | > 10000 nM | > 10000 nM | 49.6 nM | 43.2 nM | > 10000 nM |  |  |  |  |  | HLM [1, 11]: <13.608 mL/min/kg; RLM [3, 13]: 47.7 mL/min/kg; IC50 [7, 14]: > 10000 nM; half-life at 1 μM [9, 15]: 17.6 min
COc1ccc2[nH]cc(C(=O)OCC34CCN(CC3)CC4)c2c1OC [Compound 40, quinuclidin-4-ylmethyl 4,5-dimethoxy-1H-indole-3-carboxylate] |  |  |  | 69.6 nM | 60 nM |  |  |  |  |  |  | IC50 ([10]; 45 min): > 10000 nM; HLM ([1]; human, microsomes): 7.67 mL/min/kg; RLM ([3]; rat, microsomes): 49.42 mL/min/kg; IC50 ([5]; read-out: 1A2 IC50, Protocol 1): > 10000 nM; IC50 [7, 17]: > 10000 nM; IC50 [7, 18]: > 10000 nM; T1/2 ([9]; human, plasma): ∞; % Remaining @ 2 h ([9]; human, plasma, 2 h, 5 μM): 106.8%
Cl.O=C(OCC12CCN(CC1)CC2)c1c[nH]c2cc(O)c(F)cc12 [Compound 59, Quinuclidin-4-ylmethyl 5-fluoro-6-hydroxy-1H-indole-3-carboxylate hydrochloride] |  |  |  | 70.1 nM | 60.2 nM |  |  |  |  |  |  | HLM ([1]; Protocol No. 1, human liver microsomes): 0 mL/min/kg; IC50 ([2]; read-out: 2C19 IC50, Protocol 1): 20800 nM; RLM ([3]; Protocol No. 1, rat liver microsomes): 24.713 mL/min/kg; IC50 ([4]; read-out: 2D6 IC50, Protocol 1): > 10000 nM; IC50 ([5]; read-out: 1A2 IC50, Protocol 1): > 10000 nM; IC50 [7, 17]: > 10000 nM; IC50 [7, 18]: > 10000 nM; IC50 ([8]; read-out: 2C9 IC50, Protocol 1): > 10000 nM; % Remaining @ 2 h ([9]; Protocol No. 2, plasma, 5 μM, 37° C.): 53.78%
Cc1cccc2[nH]cc(C(=O)OCC34CCN(CC3)CC4)c12 [Compound 21, quinuclidin-4-ylmethyl 4-methyl-1H-indole-3-carboxylate] |  |  | > 10000 nM | 58.8 nM | 50.9 nM |  | > 10000 nM | <13.608 mL/min/kg | 379.107 mL/min/kg | 83% | > 120 min | 
Cl.O=C(OCC12CCN(CC1)CC2)c1c[nH]c2cc(OC(F)(F)F)ccc12 [Compound 29, Quinuclidin-4-ylmethyl 6-(trifluoromethoxy)-1H-indole-3-carboxylate hydrochloride] | > 10000 nM | > 10000 nM | > 10000 nM | 3710 nM | 3240 nM | > 10000 nM |  |  |  |  |  | HLM [1, 11]: <13.608 mL/min/kg; RLM [3, 13]: 25.92 mL/min/kg; IC50 [7, 14]: > 10000 nM
O=C(OCC12CCN(CC1)CC2)c1c[nH]c2cc(O)ccc12 [Compound 14, quinuclidin-4-ylmethyl 6-hydroxy-1H-indole-3-carboxylate] | > 10000 nM | > 10000 nM | > 10000 nM | 61.9 nM | 53.7 nM | > 10000 nM |  | <13.608 mL/min/kg | 25.92 mL/min/kg | 26% | 65.6 min | 
O=C(OCC12CCN(CC1)CC2)c1c[nH]c2ccc(Br)cc12 [Compound 23, quinuclidin-4-ylmethyl 5-bromo-1H-indole-3-carboxylate] |  |  | > 10000 nM | 424 nM | 374 nM |  | > 10000 nM | <13.608 mL/min/kg | 81.6815 mL/min/kg | 21% | 52.9 min | 
Cl.O=C(OCC12CCN(CC1)CC2)c1c[nH]c2cc(OC(F)F)ccc12 [Compound 31, Quinuclidin-4-ylmethyl 6-(difluoromethoxy)-1H-indole-3-carboxylate hydrochloride] | > 10000 nM | > 10000 nM | > 10000 nM | 788 nM | 689 nM | > 10000 nM |  |  |  |  |  | HLM [1, 11]: <13.608 mL/min/kg; RLM [3, 13]: 25.92 mL/min/kg; IC50 [7, 14]: > 10000 nM
O=C(OCC12CCN(CC1)CC2)c1c[nH]c2cccc(Br)c12 [Compound 24, quinuclidin-4-ylmethyl 4-bromo-1H-indole-3-carboxylate] |  |  | > 10000 nM | 58.1 nM | 50.4 nM |  | > 10000 nM | <13.608 mL/min/kg | 175.569 mL/min/kg | 89% | > 120 min | 
O=C(OCC12CCN(CC1)CC2)c1c[nH]c2cccc(F)c12 [Compound 13, quinuclidin-4-ylmethyl 4-fluoro-1H-indole-3-carboxylate] |  |  | > 10000 nM | 14.1 nM | 12.2 nM |  | > 10000 nM | <13.608 mL/min/kg | 94.3866 mL/min/kg |  | 15 min | 
O=C(OCC12CCN(CC1)CC2)c1c[nH]c2c(Cl)cccc12 [Compound 25, quinuclidin-4-ylmethyl 7-chloro-1H-indole-3-carboxylate] |  |  | > 10000 nM | 1650 nM | 1450 nM |  | > 10000 nM | <13.608 mL/min/kg | 219.053 mL/min/kg |  |  | 
O=C(OCC12CCN(CC1)CC2)c1c[nH]c2cc(Br)ccc12 [Compound 22, quinuclidin-4-ylmethyl 6-bromo-1H-indole-3-carboxylate] |  |  | > 10000 nM | 607 nM | 532 nM |  | > 10000 nM | <13.608 mL/min/kg | 49.5027 mL/min/kg | 58% | > 120 min | 
O=C(OCC12CCN(CC1)CC2)c1c[nH]c2cccc(Cl)c12 [Compound 35, quinuclidin-4-ylmethyl 4-chloro-1H-indole-3-carboxylate] |  |  | > 10000 nM | 26.6 nM | 23 nM |  | > 10000 nM | <13.608 mL/min/kg | 183.6 mL/min/kg | 56% | > 120 min | 
